{"source": "patent US11377438B2", "about": "“2-amino-n-heteroaryl-nicotinamides as Nav1.8 inhibitors” (Merck Sharp & Dohme Corp., priority 2018, dated 2022)", "target": "human Nav1.8 (Homo sapiens (Human), UniProt Q9Y5Y9)", "sequence (Q9Y5Y9 whole entry)": "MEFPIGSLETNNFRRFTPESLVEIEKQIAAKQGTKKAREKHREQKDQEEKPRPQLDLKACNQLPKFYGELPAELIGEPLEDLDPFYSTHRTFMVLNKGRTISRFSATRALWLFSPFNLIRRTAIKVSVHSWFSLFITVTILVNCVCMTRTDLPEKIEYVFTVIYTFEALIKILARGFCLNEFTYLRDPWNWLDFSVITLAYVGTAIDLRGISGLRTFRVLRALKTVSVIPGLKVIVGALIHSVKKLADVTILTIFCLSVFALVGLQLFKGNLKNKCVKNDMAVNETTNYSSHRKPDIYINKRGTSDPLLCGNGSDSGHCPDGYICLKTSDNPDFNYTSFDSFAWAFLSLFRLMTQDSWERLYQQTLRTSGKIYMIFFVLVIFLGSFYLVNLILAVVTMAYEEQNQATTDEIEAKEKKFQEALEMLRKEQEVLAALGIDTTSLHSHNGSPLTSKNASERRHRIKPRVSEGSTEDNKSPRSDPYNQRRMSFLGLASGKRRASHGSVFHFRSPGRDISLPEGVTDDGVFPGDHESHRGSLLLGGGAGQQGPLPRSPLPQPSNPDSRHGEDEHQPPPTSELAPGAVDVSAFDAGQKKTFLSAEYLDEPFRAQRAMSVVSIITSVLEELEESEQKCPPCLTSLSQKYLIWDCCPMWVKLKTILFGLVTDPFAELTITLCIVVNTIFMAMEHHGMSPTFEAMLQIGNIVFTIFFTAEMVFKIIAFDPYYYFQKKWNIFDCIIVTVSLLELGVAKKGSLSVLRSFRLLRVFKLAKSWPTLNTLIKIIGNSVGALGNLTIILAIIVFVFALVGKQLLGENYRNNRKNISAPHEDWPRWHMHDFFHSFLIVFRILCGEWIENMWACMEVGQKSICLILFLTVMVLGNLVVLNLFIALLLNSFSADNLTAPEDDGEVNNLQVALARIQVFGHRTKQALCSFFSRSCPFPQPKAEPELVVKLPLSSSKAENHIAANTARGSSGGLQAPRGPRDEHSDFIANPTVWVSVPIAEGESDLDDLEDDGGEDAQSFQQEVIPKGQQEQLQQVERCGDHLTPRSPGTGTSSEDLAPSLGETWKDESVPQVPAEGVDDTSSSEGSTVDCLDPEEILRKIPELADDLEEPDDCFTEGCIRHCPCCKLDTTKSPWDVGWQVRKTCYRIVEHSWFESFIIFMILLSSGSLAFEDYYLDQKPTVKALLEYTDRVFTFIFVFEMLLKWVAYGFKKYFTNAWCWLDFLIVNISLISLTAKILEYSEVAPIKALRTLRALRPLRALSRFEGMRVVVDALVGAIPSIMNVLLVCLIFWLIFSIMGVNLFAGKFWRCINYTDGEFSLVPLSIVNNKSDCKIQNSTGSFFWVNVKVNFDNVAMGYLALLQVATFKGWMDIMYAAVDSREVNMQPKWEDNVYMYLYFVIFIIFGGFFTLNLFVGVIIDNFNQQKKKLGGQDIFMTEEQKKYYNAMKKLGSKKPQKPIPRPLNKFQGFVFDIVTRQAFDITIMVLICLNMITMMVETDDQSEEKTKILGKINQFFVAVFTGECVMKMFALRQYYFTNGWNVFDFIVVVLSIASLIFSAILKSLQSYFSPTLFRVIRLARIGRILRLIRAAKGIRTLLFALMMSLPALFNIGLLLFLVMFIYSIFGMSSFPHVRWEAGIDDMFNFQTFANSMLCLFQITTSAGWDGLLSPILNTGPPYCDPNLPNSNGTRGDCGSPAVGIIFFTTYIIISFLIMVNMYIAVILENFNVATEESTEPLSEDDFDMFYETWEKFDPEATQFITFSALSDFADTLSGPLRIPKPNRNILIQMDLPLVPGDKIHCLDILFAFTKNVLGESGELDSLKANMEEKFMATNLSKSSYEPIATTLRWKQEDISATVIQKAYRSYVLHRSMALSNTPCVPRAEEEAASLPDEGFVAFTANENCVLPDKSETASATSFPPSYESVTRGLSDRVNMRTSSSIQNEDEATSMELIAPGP", "experiment": "Nav1.8 Qube automated patch-clamp assay", "assay_type": "cell-based", "conditions": "human Nav1.8 stably expressed in HEK 293 cells, whole-cell voltage clamp, room temperature; read-out: IC50 (nM) in the Nav 1.8 Qube Assay", "experimental": "Qube® Assay Experimental Procedure Compounds were tested on human Nav1.8 and Nav1.5 channels stably expressed in human embryo kidney (HEK) 293 cells. Sodium current measurements on Qube® were conducted as follows: automated 384-well patch-clamp assays on the Qube® platform (Sophion Biosciences) were used to measure the inhibition of sodium flow through human Nav1.8 and Nav1.5 channels. Whole-cell voltage-clamp recordings were performed in QChips® (Sophion Biosciences) at room temperature. Nav1.8 current measurements on Qube® were obtained as follows: Nav1.8 currents were elicited with a 10 second 1 Hertz (Hz) pulse train from a holding potential of −90 millivolts (mV), delivered to the cells once per minute in the control condition (DMSO only) and after compound addition. The 1 hertz pulse train stimulation consisted often test pulses to 10 millivolt (mV) for 20 milliseconds (ms), each of which was followed by a 980 millisecond repolarization to −67 millivolts. At the end of the 10 second pulse train stimulation, a 5 second hyperpolarization step to −100 millivolt (mV) was used to recover Nav1.8 from fast inactivation. The peak currents elicited by the 1st and 10th test pulses were used to determine IC50 values for resting inhibition and inactivated state inhibition. Nav1.5 current measurements on Qube® were obtained as follows: Nav1.5 currents were elicited with a 20 second 3 Hertz pulse train in the control condition (DMSO only) and after compound addition. The pulse train consisted of sixty 20 millisecond test pulses to 0 millivolt from a holding potential of −80 millivolt (mV). The average peak currents elicited by the last 3 test pulses were used to determine IC50 values for Nav1.5 inhibition.\nThe following buffers were used for the Qube® recordings: External buffer for Nav1.8 Qube® recording: 150 NaCl, 2 CaCl2, 5 KCl, 1 Mg Cl2, 10 HEPES, 12 Dextrose; External buffer for Qube® Nav1.5 recording: 120 N-Methyl-D-Glucamine, 40 NaCl, 1 KCl, 2.7 CaCl2), 5 HEPES, 0.5 MgCl2; and Internal buffer for Qube® recording: 120 CsF, 30 CsCl, 10 EGTA, 5 HEPES, 5 NaF, 2 MgCl2.\nFor all Qube® experiments offline analysis was used to determine percent inhibition as a function of drug concentration. IC50 values were determined by fitting to the Hill equation.", "data": [{"smiles": "C[C@H]1CN(c2nc(C3CCC3)c(Cl)cc2C(=O)Nc2ccnc(S(N)(=O)=O)c2)C[C@H](C(F)(F)F)O1", "note": "(single isomer, unassigned) [Example 161, 5-chloro-6-cyclobutyl-2-((2S,6R or 2R,6S)-2-methyl-6-(trifluoromethyl)morpholino)-N-(2-sulfamoylpyridin-4-yl)nicotinamide]", "values": [{"measurement": "IC50", "result": 63, "unit": "nM"}]}, {"smiles": "CC[C@H]1CN(c2ncc(C(F)(F)F)cc2C(=O)Nc2ccnc(S(N)(=O)=O)c2)C[C@H](C(F)(F)F)O1", "note": "(single isomer, unassigned) [Example 134, 2-((2S,6R or 2R,6S)-2-ethyl-6-(trifluoromethyl)morpholino)-N-(2-sulfamoylpyridin-4-yl)-5-(trifluoromethyl)nicotinamide]", "values": [{"measurement": "IC50", "result": 155, "unit": "nM"}]}, {"smiles": "NS(=O)(=O)c1cc(NC(=O)c2cc(OC(F)(F)F)cnc2N2CCCC(F)(F)CC2)ccn1", "note": "[Example 177, 2-(4,4-difluoroazepan-1-yl)-N-(2-sulfamoylpyridin-4-yl)-5-(trifluoromethoxy)nicotinamide]", "values": [{"measurement": "IC50", "result": 2.8, "unit": "nM"}]}, {"smiles": "O=C(Nc1cnn(S(=O)(=O)C2CC2)c1)c1cc(C(F)(F)F)cnc1N1CCCC(F)(F)CC1", "note": "[Example 36, N-[1-(cyclopropylsulfonyl)-1H-pyrazol-4-yl]-2-(4,4-difluoroazepan-1-yl)-5-(trifluoromethyl)pyridine-3-carboxamide]", "values": [{"measurement": "IC50", "result": 147, "unit": "nM"}]}, {"smiles": "C[C@@H]1CN(c2ncc(C(F)(F)F)cc2C(=O)Nc2ccnc(C(N)=O)c2)C[C@H](C)C1(F)F", "note": "[Example 156, 4-(2-((3S,5R)-4,4-difluoro-3,5-dimethylpiperidin-1-yl)-5 (trifluoromethyl)nicotinamido)picolinamide]", "values": [{"measurement": "IC50", "result": 58, "unit": "nM"}]}, {"smiles": "Cc1nc(N2CCC(F)(F)CC2)c(C(=O)Nc2ccnc(S(N)(=O)=O)c2)cc1C#CC1CC1", "note": "[Example 16, 5-(cyclopropylethynyl)-2-(4,4-difluoropiperidin-1-yl)-6-methyl-N-(2-sulfamoylpyridin-4-yl)nicotinamide]", "values": [{"measurement": "IC50", "result": 12, "unit": "nM"}]}, {"smiles": "C[C@@H]1CN(c2nc(C3CCC3)c(Cl)cc2C(=O)Nc2ccnc(S(N)(=O)=O)c2)C[C@H](C)C1(F)F", "note": "[Example 169, 5-chloro-6-cyclobutyl-2-((3S,5R)-4,4-difluoro-3,5-dimethylpiperidin-1-yl)-N-(2-sulfamoylpyridin-4-yl)nicotinamide]", "values": [{"measurement": "IC50", "result": 6.9, "unit": "nM"}]}, {"smiles": "C[C@@H]1CN(c2nc(C3CCC3)ccc2C(=O)Nc2ccnc(S(N)(=O)=O)c2)C[C@@H](C(F)(F)F)O1", "note": "(single isomer, unassigned) [Example 167, 6-cyclobutyl-2-((2R,6S or 2S,6R)-2-methyl-6-(trifluoromethyl)morpholino)-N-(2-sulfamoylpyridin-4-yl)nicotinamide]", "values": [{"measurement": "IC50", "result": 52, "unit": "nM"}]}, {"smiles": "NS(=O)(=O)c1cc(NC(=O)c2cc(CC3CC3)cnc2N2CCCC(F)(F)CC2)ccn1", "note": "[Example 46, 5-(cyclopropylmethyl)-2-(4,4-difluoroazepan-1-yl)-N-(2-sulfamoylpyridin-4-yl)nicotinamide]", "values": [{"measurement": "IC50", "result": 1, "unit": "nM"}]}, {"smiles": "NS(=O)(=O)c1cc(NC(=O)c2cc(C(F)(F)F)cnc2N2CCCC(F)(F)CC2)ccn1", "note": "[Example 13, 2-(4,4-difluoroazepan-1-yl)-N-(2-sulfamoylpyridin-4-yl)-5-(trifluoromethyl)nicotinamide]", "values": [{"measurement": "IC50", "result": 4.1, "unit": "nM"}]}, {"smiles": "Cc1nc(N2CCCC(F)(F)CC2)c(C(=O)Nc2ccnc(S(N)(=O)=O)c2)cc1C(F)(F)F", "note": "[Example 184, 2-(4,4-difluoroazepan-1-yl)-6-methyl-N-(2-sulfamoylpyridin-4-yl)-5-(trifluoromethyl)nicotinamide]", "values": [{"measurement": "IC50", "result": 0.5, "unit": "nM"}]}, {"smiles": "Cc1nc(N2C[C@@H](C)C(F)(F)[C@@H](C)C2)c(C(=O)Nc2ccnc(S(N)(=O)=O)c2)cc1Cl", "note": "[Example 53, 5-chloro-2-[(3S,5R)-4,4-difluoro-3,5-dimethyl-1-piperidyl]-6-methyl-N-(2-sulfamoyl-4-pyridyl)pyridine-3-carboxamide]", "values": [{"measurement": "IC50", "result": 0.8, "unit": "nM"}]}, {"smiles": "Cc1nc(N2CCC(F)(F)CC2)c(C(=O)Nc2ccnc(S(N)(=O)=O)c2)cc1C1CCC1", "note": "[Example 15, 5-cyclobutyl-2-(4,4-difluoropiperidin-1-yl)-6-methyl-N-(2-sulfamoylpyridin-4-yl)nicotinamide]", "values": [{"measurement": "IC50", "result": 6.5, "unit": "nM"}]}, {"smiles": "C[C@@H]1CN(c2ncc(C(F)(F)F)cc2C(=O)Nc2ccnc(S(C)(=O)=O)c2)C[C@H](C)C1(F)F", "note": "[Example 147, 2-((3S,5R)-4,4-difluoro-3,5-dimethylpiperidin-1-yl)-N-(2-(methylsulfonyl)pyridin-4-yl)-5-(trifluoromethyl)nicotinamide]", "values": [{"measurement": "IC50", "result": 22, "unit": "nM"}]}, {"smiles": "C[C@@H]1CN(c2nc(C3CCC3)c(Cl)cc2C(=O)Nc2ccnc(S(N)(=O)=O)c2)C[C@@H](C(F)(F)F)O1", "note": "(single isomer, unassigned) [Example 160, 5-chloro-6-cyclobutyl-2-((2R,6S or 2S,6R)-2-methyl-6-(trifluoromethyl)morpholino)-N-(2-sulfamoylpyridin-4-yl)nicotinamide]", "values": [{"measurement": "IC50", "result": 9.2, "unit": "nM"}]}, {"smiles": "NS(=O)(=O)c1cc(NC(=O)c2ccc(Cl)nc2N2CCCC(F)(F)CC2)ccn1", "note": "[Example 138, 6-chloro-2-(4,4-difluoroazepan-1-yl)-N-(2-sulfamoyl-4-pyridyl)pyridine-3-carboxamide]", "values": [{"measurement": "IC50", "result": 5.8, "unit": "nM"}]}, {"smiles": "CC[C@@H]1CN(c2ncc(C(F)(F)F)cc2C(=O)Nc2ccnc(S(N)(=O)=O)c2)C[C@@H](C(F)(F)F)O1", "note": "(single isomer, unassigned) [Example 133, 2-((2R,6S or 2S,6R)-2-ethyl-6-(trifluoromethyl)morpholino)-N-(2-sulfamoylpyridin-4-yl)-5-(trifluoromethyl)nicotinamide]", "values": [{"measurement": "IC50", "result": 12, "unit": "nM"}]}, {"smiles": "NS(=O)(=O)c1cc(NC(=O)c2cc(Cl)c(C3CC3)nc2N2CCCC(F)(F)CC2)ccn1", "note": "[Example 21, 5-chloro-6-cyclopropyl-2-(4,4-difluoroazepan-1-yl)-N-(2-sulfamoylpyridin-4-yl)nicotinamide]", "values": [{"measurement": "IC50", "result": 4.5, "unit": "nM"}]}, {"smiles": "CC1CN(c2ncc(C(F)(F)F)cc2C(=O)Nc2ccnc(S(N)(=O)=O)c2)CCC(C(F)(F)F)O1", "note": "(single isomer, unassigned) [Example 121, 2-((2R,7S or 2S.7R)-2-methyl-7-(trifluoromethyl)-1,4-oxazepan-4-yl)-N-(2-sulfamoylpyridin-4-yl)-5-(trifluoromethyl)nicotinamide]", "values": [{"measurement": "IC50", "result": 58, "unit": "nM"}]}, {"smiles": "C[C@H]1CN(c2nc(C3CCC3)ccc2C(=O)Nc2ccnc(S(N)(=O)=O)c2)C[C@H](C(F)(F)F)O1", "note": "(single isomer, unassigned) [Example 168, 6-cyclobutyl-2-((2S,6R or 2R,6S)-2-methyl-6-(trifluoromethyl)morpholino)-N-(2-sulfamoylpyridin-4-yl)nicotinamide]", "values": [{"measurement": "IC50", "result": 17, "unit": "nM"}]}, {"smiles": "C[C@@H]1CN(c2nc(C3CCC3)ccc2C(=O)Nc2ccnc(S(N)(=O)=O)c2)C[C@H](C)C1(F)F", "note": "[Example 166, 6-cyclobutyl-2-((3S,5R)-4,4-difluoro-3,5-dimethylpiperidin-1-yl)-N-(2-sulfamoylpyridin-4-yl)nicotinamide]", "values": [{"measurement": "IC50", "result": 13, "unit": "nM"}]}, {"smiles": "NS(=O)(=O)c1cc(NC(=O)c2ccc(CC3CC3)nc2N2CCCC(F)(F)CC2)ccn1", "note": "[Example 18, 6-(cyclopropylmethyl)-2-(4,4-difluoroazepan-1-yl)-N-(2-sulfamoylpyridin-4-yl)nicotinamide]", "values": [{"measurement": "IC50", "result": 0.9, "unit": "nM"}]}, {"smiles": "NS(=O)(=O)c1cc(NC(=O)c2cc(Cl)c(C3CCC3)nc2N2CCCC(F)(F)CC2)ccn1", "note": "[Example 23, 5-chloro-6-cyclobutyl-2-(4,4-difluoroazepan-1-yl)-N-(2-sulfamoylpyridin-4-yl)nicotinamide]", "values": [{"measurement": "IC50", "result": 2.6, "unit": "nM"}]}, {"smiles": "Cc1ccc(C(=O)Nc2ccnc(S(N)(=O)=O)c2)c(N2CCCC(F)(F)CC2)n1", "note": "[Example 17, 2-(4,4-difluoroazepan-1-yl)-6-methyl-N-(2-sulfamoylpyridin-4-yl)nicotinamide]", "values": [{"measurement": "IC50", "result": 3.1, "unit": "nM"}]}, {"smiles": "Cc1nc(N2CCCC(F)(F)CC2)c(C(=O)Nc2ccnc(S(N)(=O)=O)c2)cc1Cl", "note": "[Example 172, 5-chloro-2-(4,4-difluoroazepan-1-yl)-6-methyl-N-(2-sulfamoylpyridin-4-yl)nicotinamide]", "values": [{"measurement": "IC50", "result": 0.3, "unit": "nM"}]}, {"smiles": "NS(=O)(=O)c1cc(NC(=O)c2ccc(C(F)(F)F)nc2N2CCCC(F)(F)CC2)ccn1", "note": "[Example 132, 2-(4,4-difluoroazepan-1-yl)-N-(2-sulfamoylpyridin-4-yl)-6-(trifluoromethyl)nicotinamide]", "values": [{"measurement": "IC50", "result": 5.3, "unit": "nM"}]}, {"smiles": "NS(=O)(=O)c1cc(NC(=O)c2ccc(C3CC3)nc2N2CCCC(F)(F)CC2)ccn1", "note": "[Example 22, 6-cyclopropyl-2-(4,4-difluoroazepan-1-yl)-N-(2-sulfamoylpyridin-4-yl)nicotinamide]", "values": [{"measurement": "IC50", "result": 3, "unit": "nM"}]}, {"smiles": "Cc1cc(C(=O)Nc2ccnc(S(N)(=O)=O)c2)c(N2CCCC(F)(F)CC2)nc1C", "note": "[Example 19, 2-(4,4-difluoroazepan-1-yl)-5,6-dimethyl-N-(2-sulfamoylpyridin-4-yl)nicotinamide]", "values": [{"measurement": "IC50", "result": 1.6, "unit": "nM"}]}]}
